From ChEMBL document CHEMBL6109162, “Discovery of Highly Potent BET Inhibitors based on a Tractable Tricyclic Scaffold” (ACS Med Chem Lett, 2025)

Assays:
[1] = biological target: T1, Bromodomain-containing protein 4 (Homo sapiens, UniProt O60885); assay: Inhibition of BRD4 BD1 (unknown origin) by FRET assay
[2] = biological target: T1, Bromodomain-containing protein 4; assay: Inhibition of BRD4 (unknown origin) by FRET assay

IC50 [1] [nM] | IC50 [2] [nM] | SMILES
2.88 |  | Cc1nnn(C)c1-c1cnc2c3ccc(C(C)(C)O)cc3n([C@@H](c3ccccc3)C3CCOCC3)c2c1
 | 1.51 | CCS(=O)(=O)Nc1ccc(Oc2ccc(F)cc2F)c(-c2cn(C)c(=O)c3[nH]ccc23)c1 [MIVEBRESIB]
